For 18 molecules, inhibition results are on record in US5225436A, “Aryl substituted naphthalene derivatives” (Schering Corporation, priority 1991, dated 1993).

Read-outs that look alike come from different tables or passages of the source.

Common to all, as to format: cell-based
The subject of assay [1] is SRS-A / leukotriene release from antigen-challenged, sensitized guinea pig lung. Kind of assay: Inhibition of SRS-A (leukotriene) release from antigen-challenged, sensitized guinea pig lung. On the set-up: inhibition: dose or concentration left out as unconfirmed. As to conditions: Cavia porcellus; for inhibition: Dose 30 μm (μM). The source says: The anti-allergy method of this invention is identified by tests which measure a compound's inhibition of leukotriene release in sensitized guinea pigs. Sensitized guinea pigs are killed by a blow to the head and the lungs removed and cleaned of visible connective tissue, trachea and large blood vessels. The lungs from individual animals are sliced into fragments approximately 1 mm in thickness using a McIlwain tissue chopper and then washed with oxygenated Tyrode's buffer. Weighed aliquots (approximately 400 mg wet weight) of lung are transferred into vials containing 2 ml of fresh Tyrode's solution (containing 10 mM cysteine) and incubated in the presence or absence of test compound for 12 min at 37° C. The tissues are then challenged with 20 μg ovalbumin/ml (final concentration) and incubated for 15 min. To measure leukotriene release, an aliquot of supernatant fluid is extracted with 4 volumes of 100% ethanol. After removal of the precipitated protein, the clear fluid is dried under a stream of N2 gas. The leukotriene content is measured by a radioimmunoassay using [^3 H]LTC4 and antiserum obtained from New England Nuclear. The cross-reactivity of the antiserum for LTD4 is 55%. Percent inhibition of lekotriene release is calculated by comparing for each lung the release in the presence of the test compound to that in the absence of test compound. Representative compounds of the invention at a relative dose of 50 μM of tissue are found to inhibit leukotriene release in the test procedure as indicated below in Table 1: […]

The target in assay [2] is T1, 5-lipoxygenase (Mus musculus, UniProt P48999).
T1 construct: The IL-3-dependent murine mast cell clone, MC-9, was used to test the effects; endogenous in cells; host or cells: MC-9 (IL-3-dependent murine mast cell clone)
T1 sequence (P48999 1-674): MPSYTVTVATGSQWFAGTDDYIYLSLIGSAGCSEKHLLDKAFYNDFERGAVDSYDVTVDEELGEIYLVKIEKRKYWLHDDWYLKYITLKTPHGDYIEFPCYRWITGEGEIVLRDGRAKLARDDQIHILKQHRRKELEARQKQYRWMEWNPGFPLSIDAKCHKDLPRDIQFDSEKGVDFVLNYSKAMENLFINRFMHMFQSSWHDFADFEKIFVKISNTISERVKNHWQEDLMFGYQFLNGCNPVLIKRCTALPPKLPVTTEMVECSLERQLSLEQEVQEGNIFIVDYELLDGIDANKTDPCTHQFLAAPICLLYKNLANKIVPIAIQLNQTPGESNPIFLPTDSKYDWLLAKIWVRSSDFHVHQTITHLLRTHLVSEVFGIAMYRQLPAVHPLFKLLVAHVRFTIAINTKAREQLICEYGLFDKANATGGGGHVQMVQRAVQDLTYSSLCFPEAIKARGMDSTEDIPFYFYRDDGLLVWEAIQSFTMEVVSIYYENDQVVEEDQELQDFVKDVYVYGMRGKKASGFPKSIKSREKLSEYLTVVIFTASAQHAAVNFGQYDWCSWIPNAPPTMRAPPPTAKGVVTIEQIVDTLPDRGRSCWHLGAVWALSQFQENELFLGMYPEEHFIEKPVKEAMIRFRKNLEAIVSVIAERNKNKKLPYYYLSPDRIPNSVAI
Kind of assay: 5-Lipoxygenase assay (murine mast cell clone MC-9). As to conditions: MC9, 5 min, MC-9 cell, dose 5 μm. How it is done:
The IL-3-dependent murine mast cell clone, MC-9, was used to test the effects of representative compounds of the invention on lipoxygenase activity. The MC-9 cell line was grown in suspension culture (0.4 to 1.2×10^6 cells/ml) in RPMI 1640 medium (Gibco) with 10% fetal bovine serum (Hyclone) and 2-5% conconavalin-A conditioned supernatant (Musch et. al., (1985) Prostagandins 29, 405-4307. Cells were harvested, washed twice by centrifugation, and resuspended in a Ca^++ -free HEPES buffer (25 mM HEPES, 125 mM NaCl, 2.5 mM KCl 0.7 mM MgCl2, 0.5 mM EGTA and 10 mM glucose at pH 7.4).
MC-9 cells (0.39 ml at 7.5×10^6 cells/ml) were preincubated with dimethylsulfoxide (DMSO) vehicle with or without test compound (1 ul) for 4 minutes then incubated for 5 minutes with [^14 C] arachidonic acid (Amersham, 59 Ci/mole) at a 9 uM final concentration, and A23187 (Calbiochem) at a 1 uM final concentration was added in 10 ul of water:ethanol (9:1). The reaction was stopped by addition of methanol (0.4 ml), and cellular debris was removed by centrifugation. Aliquots (250 ul) of the incubations were run on a Waters two pump HPLC system fitted with a Waters C18, 10 u 8×100 mm u-Bondapak radial compression column and C18 "Guard Pak". The column was initially eluted at 3 ml/min with water:methanol:acetic acid (67:33:0.08) containing 1 mM EDTA adjusted to pH 6.0 with ammonium hydroxide (Pump A). At 4 minutes, a linear gradient to reach 100% methanol (Pump B) at 9 minutes was established. Between 13 and 14 minutes, methanol was exchanged for the initial eluting solvent and by 19 minutes the column had been reequilibrated for the next sample. The effluent was analyzed by a continuous flow radioactivity monitor (model ROMONA-D) interfaced with a Hewlett Packard Lab Automation System for quantitation of radioactive products. These were predominantly leukotriene C4 (LTC4) which eluted at 6 minutes, and 5-hydroxyeicosatetraenoic acid (5-HETE) which eluted at 11 minutes (Musch et. al., supra).

For assay [3], the target named is T2, 5-lipoxygenase (Homo sapiens, UniProt P09917).
T2 construct: Human polymorphonuclear leukocytes (neutrophils) were obtained from normal healthy volunteers; endogenous in cells; host or cells: human blood neutrophils from healthy volunteers
T2 sequence (P09917 1-674): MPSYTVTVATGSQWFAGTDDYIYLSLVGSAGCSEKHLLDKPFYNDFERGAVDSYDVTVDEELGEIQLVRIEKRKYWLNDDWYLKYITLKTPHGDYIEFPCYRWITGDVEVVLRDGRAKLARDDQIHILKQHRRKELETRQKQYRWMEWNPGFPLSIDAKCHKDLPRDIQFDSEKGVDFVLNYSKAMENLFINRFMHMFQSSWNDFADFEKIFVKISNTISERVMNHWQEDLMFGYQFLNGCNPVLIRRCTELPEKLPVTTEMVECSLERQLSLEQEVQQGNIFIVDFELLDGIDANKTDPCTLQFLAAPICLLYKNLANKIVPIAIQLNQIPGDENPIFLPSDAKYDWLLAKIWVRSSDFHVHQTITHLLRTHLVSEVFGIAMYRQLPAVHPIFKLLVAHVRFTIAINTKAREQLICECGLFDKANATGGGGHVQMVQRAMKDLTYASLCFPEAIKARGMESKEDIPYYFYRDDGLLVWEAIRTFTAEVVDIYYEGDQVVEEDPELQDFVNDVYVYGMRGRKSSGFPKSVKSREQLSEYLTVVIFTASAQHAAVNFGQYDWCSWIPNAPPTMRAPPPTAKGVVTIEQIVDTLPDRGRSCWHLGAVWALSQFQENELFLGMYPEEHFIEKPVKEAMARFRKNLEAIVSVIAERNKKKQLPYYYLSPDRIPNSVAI
Kind of assay: 5-Lipoxygenase assay with human neutrophils. Particulars: 5 min, Human PMN, dose 15 μm (μM). How it is done:
Human polymorphonuclear leukocytes (neutrophils) were obtained from normal healthy volunteers by venipuncture and collected with heparin anticoagulant. Neutrophils were isolated by Dextran/Ficol sedimentation as described (Billah et al., J. Biol. Chem. 260, 6899-6906 (1985)). In brief, 30 ml of blood was mixed with 5 ml of dextran (Sigma) solution and kept at 37° C. for 30 min. The upper white cell-rich layer was removed and 10 ml was layered on 9 ml of Ficol-Paque solution (Pharmacia) and centrifuged at 280 xg for 10 min. at 5° C. The supernatant was removed and the neutrophil pellet was resuspended in HEPES buffer containing 25 mM N-2-hydroxyethylpiperazine-N^1 -2-ethanesulfonic acid HEPES, 125 mM NaCl, 2.5 mM KCl, 0.7 mM MgCl2, […] 10 mM glucose at pH 7.4. The red cells in the suspension were lysed by hypotonic shock. The neutrophils were washed by centrifugation in HEPES buffer two times and finally resuspended at a concentration of 20×10^6 cells/ml in the presence of 1 mM CaCl2.
Neutrophils (0.2 ml of suspension) were preincubated with dimethylsulfoxide (DMSO) vehicle with or without test compound (1 ul) for 4 minutes then incubated for 5 minutes with [^14 C] arachidonic acid (Amersham, 59 Ci/mole) at a 9 uM final concentration, and the calcium ionophore A23187 (Calbiochem) at a 1 uM final concentration. These stimulants were added in 10 ul of water:ethanol (9:1). The reaction was stopped by addition of methanol (0.4 ml), and cellular debris was removed by centrifugation. Aliquots (100 ul) of the incubations were run on a Waters two pump HPLC system fitted with a DuPont Zorbax ODS, 5u, […] Reliance Cartridge column and C18 "Guard Pak". The column was initially eluted at 2 ml/min with 80% of the mixture water:methanol:acetic acid (46:54:0.08) containing 1 mM EDTA adjusted to pH 6.0 with ammonium hydroxide (Pump A) and 20% methanol (Pump B). At 10 minutes, a linear gradient to reach 100% methanol (Pump B) at 27 minutes was established. Between 27 and 28 minutes, methanol was exchanged for the initial eluting solvent and by 35 minutes the column had been reequilibrated for the next sample. The effluent was analyzed by a continuous flow radioactivity monitor (model ROMONA-D) interfaced with a Hewlett Packard Lab Automation System for quantitation of radioactive products. These were predominantly leukotriene B4 (LTB4) which eluted at 7 minutes, and 5-hydroxyeicosatetraenoic acid (5-HETE) which eluted at 20 minutes.

Take `COc1cc(OC)c2c(c1)C(C)(C)C(c1ccc(OC)c(OC)c1)CC2` (centres unmarked): the inhibition at 50 µM in assay [1] was determined as 5%. The inhibition at 5 µM is 35% on 5-lipoxygenase [2] (read-out: % Inhibition 5-HETE) and 53% at 5-lipoxygenase [2] (read-out: % Inhibition LTC4).

In the case of `CC1(C)c2cc(O)cc(O)c2CCC1c1ccc(O)c(O)c1` (centres unmarked), in assay [1], the inhibition at 10 µM came to 16%. Also, the inhibition at 5 µM on 5-lipoxygenase [2] (read-out: % Inhibition 5-HETE) came to 55%; at 5-lipoxygenase [2] (read-out: % Inhibition LTC4), 52%.

With `COc1cc(OC)c2c(c1)C(C)(C)C(c1ccc(OC)c(OC)c1)CC2N` (centres unmarked), in assay [1], the inhibition was 0%. The inhibition at 15 µM at 5-lipoxygenase [3] (read-out: % Inhibition 5-HETE) and at 5-lipoxygenase [3] (read-out: % Inhibition LTB) was 0% in each case.

For `COc1cc(OC)c2c(c1)C(C)(C)C(c1ccc(OC)c(OC)c1)CC2NC(C)=O` (centres unmarked), in assay [1], the inhibition was 11%. For the same molecule, the inhibition at 15 µM at 5-lipoxygenase [3] (read-out: % Inhibition 5-HETE) worked out at 0%; on 5-lipoxygenase [3] (read-out: % Inhibition LTB), 4%.

For the molecule `CON=C1CC(c2ccc(OC)c(OC)c2)C(C)(C)c2cc(OC)ccc21` (centres unmarked), the inhibition in assay [1] was found to be 0%. Also, the inhibition at 15 µM at 5-lipoxygenase [3] (read-out: % Inhibition 5-HETE) was determined as 74%.

For the molecule `COc1cc(OC)c2c(c1)C(C)(C)C(c1ccc(OC)c(OC)c1)C(C)C2=NO` (centres unmarked), the inhibition at 10 µM in assay [1] was 13%. For the same molecule, the inhibition at 15 µM at 5-lipoxygenase [3] (read-out: % Inhibition 5-HETE) came out at 31%.

As to `COc1cc(OC)c2c(c1)C(C)(C)C(c1ccccc1)CC2=O` (centres unmarked), the inhibition at 10 µM in assay [1] came out at 6%. For the same molecule, the inhibition at 15 µM on 5-lipoxygenase [3] (read-out: % Inhibition 5-HETE) and at 5-lipoxygenase [3] (read-out: % Inhibition LTB) was 0% each time.

Regarding `COc1ccc2c(c1)C(C)(C)C(c1ccc(OC)c(OC)c1)CC2=O` (centres unmarked), the inhibition in assay [1] was determined as 28%. Further, the inhibition at 15 µM at 5-lipoxygenase [3] (read-out: % Inhibition 5-HETE) was 42%.

In the case of `COc1cc(OC)c2c(c1)C(C)(C)C(c1ccc(OC)c(OC)c1)C(C=O)C2=O` (centres unmarked), the inhibition in assay [1] came out at 19%. For the same molecule, the inhibition at 15 µM worked out at 16% on 5-lipoxygenase [3] (read-out: % Inhibition 5-HETE) and 0% on 5-lipoxygenase [3] (read-out: % Inhibition LTB).

As for `COc1cc(OC)c2c(c1)C(C)(C)C(c1ccc(OC)c(OC)c1)CC2(C)O` (centres unmarked), the inhibition at 5 µM amounted to 0% at 5-lipoxygenase [2] (read-out: % Inhibition 5-HETE) and 8% on 5-lipoxygenase [2] (read-out: % Inhibition LTC4).

As for `COc1cc(OC)c2c(c1)C(C)(C)C(c1ccc(OC)c(OC)c1)CC2O` (centres unmarked), the inhibition at 5 µM was 5% at 5-lipoxygenase [2] (read-out: % Inhibition 5-HETE) and 32% on 5-lipoxygenase [2] (read-out: % Inhibition LTC4).

As to `CC(=O)Oc1cc(OC(C)=O)c2c(c1)C(C)(C)[C@H](c1ccc(OC(C)=O)c(OC(C)=O)c1)[C@H](OC(C)=O)C2=O` (relative stereo), the inhibition at 50 µM in assay [1] was found to be 26%.

Take `COc1ccc(C2CC(=O)c3c(cc(OC)c(OC)c3OC)C2(C)C)cc1OC` (centres unmarked) [3-(3,4-dimethoxyphenyl)-3,4-dihydro-6,7,8-trimethoxy-4,4-dimethyl-1(2H)naphthalenone]: the inhibition at 10 µM in assay [1] was 1%. The inhibition at 15 µM on 5-lipoxygenase [3] (read-out: % Inhibition 5-HETE) and on 5-lipoxygenase [3] (read-out: % Inhibition LTB) was 0% in each case.

As to `COc1cc(OC)cc(C2=CC(=O)c3c(OC)cc(OC)cc3C2(C)C)c1` [drawing 84 [K=H]], the inhibition in assay [1] was determined as 33%.

As for `COc1cc(OC)cc(C2=CC(=O)c3c(cc(OC)c(OC)c3OC)C2(C)C)c1` [drawing 84 [K=OCH3]], the inhibition in assay [1] amounted to 21%.

As for `COc1ccc(CC2CC(C)(C)c3cc(OC)cc(OC)c3C2=O)cc1` (centres unmarked) [drawing 85 [A=drawing 86; B=H]], the inhibition in assay [1] was 0%.

With `COc1ccc(CC2(Cc3ccc(OC)cc3)CC(C)(C)c3cc(OC)cc(OC)c3C2=O)cc1` [drawing 85 [A=drawing 87; B=drawing 88]], the inhibition in assay [1] came out at 16%.

As to `COc1cc(OC)c2c(c1)C(C)(C)C(c1ccc(OC)c(OC)c1)CC(C)(C)C2=O` (centres unmarked) [drawing 90 [X=O; W=CH3; J=CH3]], the inhibition in assay [1] is 25%. Moreover, the inhibition at 15 µM on 5-lipoxygenase [3] (read-out: % Inhibition 5-HETE) came out at 54%.
